Results as given in paper PMC4382466 (Toxicologic pathology, 2014).
Where two headings read alike, the source gives them in different places. One block for each compound: values may come before it.

What was measured:
Fischer 344 rats [1] = conditions: rat, in vivo
Fischer 344 rats [2] = test: Clinical signs and body weights; format: in vivo; conditions: n=6/sex/group
Fischer 344 rats [3] = conditions: rat, in vivo; remark: listed apart in the source
Fischer 344 rats [4] = test: Kidney and urinary bladder histopathology; format: in vivo; conditions: 6 animals
Fischer 344 rats [5] = test: Mesna as mitigating co-treatment of batracylin-induced toxicity; conditions: male rats, mesna study, Day 5
dogs = conditions: two times the mouse LD50; ref NationalTechnicalInformationService; cited from earlier work
γH2AX [6] = test: γH2AX immunofluorescence staining of kidney sections; format: in vivo, Fischer 344 rats; conditions: five imaged fields, one rat/sex/group
γH2AX [7] = test: γH2AX immunofluorescence staining of bone marrow; format: in vivo, Fischer 344 rats
Fischer 344 rats [8] = conditions: rat, in vivo; remark: listed apart in the source
rats = conditions: one-tenth the mouse LD10, ref NationalTechnicalInformationService; cited from earlier work
[9] = design: species or system Fischer 344 rats; conditions: in vivo, po
[10] = oral batracylin 590 mg/m^2; ref Ames et al., 1991; cited from earlier work
[11] = male, Fischer 344, rat, 16 mg/kg
[12] = male, Fischer 344, rat, 32 mg/kg

Compound: Nc1ccc2c(c1)CN1C(=O)c3ccccc3C1=N2 [batracylin, 8-aminoisoindolo[1,2-b]quinazolin-12(10H)-one]
- Protein casts, severity (Fischer 344 rats [1]): mild to moderate
- Tubular dilation, severity (Fischer 344 rats [1]): mild
- Urothelial atrophy, severity (Fischer 344 rats [1]): mild to moderate
- Urothelial vacuolation, severity (Fischer 344 rats [1]): minimal to mild
- Rats displaying evidence of toxicity (clinical signs) (Fischer 344 rats [2]; Day 3, high-dose group (32 mg/kg/day)): all of the rats
- Rats displaying evidence of toxicity (clinical signs) (Fischer 344 rats [2]; Day 3, low-dose group (16 mg/kg/day)): a third of the rats
- Lymphocytes, % of the total WBC population (Fischer 344 rats [3]): 19%
- Neutrophils, % of the total WBC population (Fischer 344 rats [3]): 78%
- Kidney: non-inflammatory tubular degeneration, severity (incidence) (Fischer 344 rats [4]; 16 mg/kg/day po x4 days, females): Mild (4), Moderate (2)
- Kidney: non-inflammatory tubular degeneration, severity (incidence) (Fischer 344 rats [4]; 16 mg/kg/day po x4 days, males): Mild (6)
- Kidney: non-inflammatory tubular degeneration, severity (incidence) (Fischer 344 rats [4]; 32 mg/kg/day po x4 days, females): Moderate (4), Marked (2)
- Kidney: non-inflammatory tubular degeneration, severity (incidence) (Fischer 344 rats [4]; 32 mg/kg/day po x4 days, males): Moderate (6)
- Non-inflammatory tubular degeneration, severity (Fischer 344 rats [5]): moderate
- Tubular epithelial regeneration, severity (Fischer 344 rats [5]): mild
- Toxicity of oral batracylin in dogs (dogs): only slight toxicity
- Nuclei γH2AX positive, renal cortex (γH2AX [6]; female rat, 16 mg/kg batracylin): 22%
- Nuclei γH2AX positive, renal cortex (γH2AX [6]; female rat, 32 mg/kg batracylin): 15%
- Nuclei γH2AX positive, renal cortex (γH2AX [6]; male rat, 16 mg/kg batracylin): 13%
- Nuclei γH2AX positive, renal cortex (γH2AX [6]; male rat, 32 mg/kg batracylin): 29%
- Bone marrow cellular nuclei γH2AX positive (γH2AX [7]; 4 of 6 low-dose females (16 mg/kg)): Less than 0.5%
- Bone marrow cellular nuclei γH2AX positive (γH2AX [7]; all 6 low-dose males (16 mg/kg)): Less than 0.5%
- Incidence of visibly red urine (Fischer 344 rats [8]): 4 of the 6
- Toxicity of oral batracylin in rats (rats): lethal
- AUC(0-inf) [9, 11]: 0.118 µg·h/mL
- AUC(0-t) [9, 11]: 0.0983 µg·h/mL
- Cmax [9, 11]: 0.0111 µg/mL
- Tmax [9, 11]: 4 h
- k el [9, 11]: 4.83e-05 s⁻¹
- half-life ([9]; male, Fischer 344, rat, 16 mg/kg, Half-life): 4 h
- AUC(0-inf) [9, 12]: 0.144 µg·h/mL
- AUC(0-t) [9, 12]: 0.112 µg·h/mL
- Cmax [9, 12]: 0.0118 µg/mL
- Tmax [9, 12]: 4 h
- half-life [9, 12]: 11.1 h
- k el [9, 12]: 1.72e-05 s⁻¹
- half-life ([9]; male, Fischer 344, rat, 32 mg/kg, Half-life): 11 h
- half-life ([9]; male, Fischer 344, rat, 32 mg/kg, half-life): 4 to 11 h

- increase of AUC0-24 hr for a 2-fold increase in dose ([9]; rat): 2.9 fold
- AUC0-24 ([9]; rat, 16 mg/kg): 15.15 µg·h/mL
- AUC0-∞ ([9]; rat, 16 mg/kg): 15.24 µg·h/mL
- Cmax ([9]; rat, 16 mg/kg): 2.507 µg/mL
- Kel ([9]; rat, 16 mg/kg): 0.755 h⁻¹
- Tmax ([9]; rat, 16 mg/kg): 4 h
- AUC0-24 ([9]; rat, 32 mg/kg): 44.62 µg·h/mL
- AUC0-∞ ([9]; rat, 32 mg/kg): 45.17 µg·h/mL
- Cmax ([9]; rat, 32 mg/kg): 7.214 µg/mL
- Kel ([9]; rat, 32 mg/kg): 0.108 h⁻¹
- NAB AUC0-24 hr, times greater than the corresponding value for batracylin ([9]; rat, 32 mg/kg): 398 times
- NAB Cmax, times greater than the corresponding value for batracylin ([9]; rat, 32 mg/kg): 611 times
- Tmax ([9]; rat, 32 mg/kg): 4 h
Compound: N-acetylbatracylin [NAB]
- Systemic levels of NAB, times greater in the rat than in the mouse [10]: approximately 9 times
